Results on one compound are retold here after ChEMBL document CHEMBL3351804, “Development of 2-aryl substituted quinazolin-4(3H)-one, pyrido[4,3-d]pyrimidin-4(3H)-one and pyrido[2,3-d]pyrimidin-4(3H)-one derivatives as microsomal prostaglandin E(2) synthase-1 inhibitors” (Bioorg Med Chem Lett, 2014).

For data set [1], the target named is T1, Thromboxane-A synthase (Homo sapiens) (UniProt P24557).
T1 sequence (whole entry): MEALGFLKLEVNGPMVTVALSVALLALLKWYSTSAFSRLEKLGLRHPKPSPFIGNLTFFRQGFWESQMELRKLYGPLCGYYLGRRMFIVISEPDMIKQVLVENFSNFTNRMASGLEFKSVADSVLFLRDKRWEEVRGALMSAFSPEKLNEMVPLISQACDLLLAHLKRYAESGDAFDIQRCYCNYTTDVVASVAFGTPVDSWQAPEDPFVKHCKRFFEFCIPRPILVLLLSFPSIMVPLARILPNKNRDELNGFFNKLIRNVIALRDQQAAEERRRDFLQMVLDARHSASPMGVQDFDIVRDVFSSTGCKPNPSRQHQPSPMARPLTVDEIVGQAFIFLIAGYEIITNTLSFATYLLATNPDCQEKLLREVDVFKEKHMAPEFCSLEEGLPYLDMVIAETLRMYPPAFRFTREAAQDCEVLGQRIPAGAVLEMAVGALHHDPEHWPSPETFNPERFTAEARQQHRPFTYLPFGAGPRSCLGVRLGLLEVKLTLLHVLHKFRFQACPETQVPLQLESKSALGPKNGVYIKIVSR
The experiment in a line: Inhibition of recombinant TXAS (unknown origin) at 10 uM.

For a further data set, the target named is T2, Prostaglandin E synthase (Homo sapiens, UniProt O14684).
T2 sequence (O14684 whole entry): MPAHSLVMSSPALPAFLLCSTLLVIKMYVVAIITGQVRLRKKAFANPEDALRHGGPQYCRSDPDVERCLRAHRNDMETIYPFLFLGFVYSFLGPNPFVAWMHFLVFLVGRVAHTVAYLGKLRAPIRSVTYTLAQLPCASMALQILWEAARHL
Description: Inhibition of human recombinant mPGES-1 expressed in CHO cells using PGH2 as substrate incubated for 10 mins prior to substrate addition measured after 1 min.

The target of data set [2] is Hematopoietic prostaglandin D synthase (Homo sapiens) (UniProt O60760). Description: Inhibition of recombinant PGDS (unknown origin) at 10 uM.
A short description of data set [3]: Stability in rat liver microsomes assessed as compound remaining after 60 mins. Particulars: read-out: Stability. The class given is ADME. On the technique in general: Microsomes from liver hold many membrane-bound enzymes, among them those of drug oxidation.
In data set [4] the target is T3, Prostacyclin synthase (Homo sapiens) (UniProt Q16647).
T3 sequence (whole entry): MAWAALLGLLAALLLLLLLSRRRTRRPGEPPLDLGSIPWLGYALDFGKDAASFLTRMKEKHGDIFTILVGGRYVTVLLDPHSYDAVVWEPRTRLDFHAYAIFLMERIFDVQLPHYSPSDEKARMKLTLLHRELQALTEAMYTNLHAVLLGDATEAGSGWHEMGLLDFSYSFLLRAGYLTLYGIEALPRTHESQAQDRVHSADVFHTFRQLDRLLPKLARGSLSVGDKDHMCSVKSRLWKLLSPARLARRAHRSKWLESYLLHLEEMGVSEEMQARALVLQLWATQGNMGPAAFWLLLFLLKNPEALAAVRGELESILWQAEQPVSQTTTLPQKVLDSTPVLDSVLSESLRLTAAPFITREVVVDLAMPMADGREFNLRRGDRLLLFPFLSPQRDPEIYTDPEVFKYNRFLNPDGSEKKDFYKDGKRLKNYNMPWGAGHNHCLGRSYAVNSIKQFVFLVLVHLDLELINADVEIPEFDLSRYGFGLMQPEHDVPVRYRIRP
Description: Inhibition of recombinant PGIS (unknown origin) at 10 uM.

Data set [5] can be described thus: Inhibition of guinea pig recombinant mPGES-1. On the set-up: species or system Cavia porcellus.

Chain of Hematopoietic prostaglandin D synthase (Homo sapiens) (O60760 whole entry): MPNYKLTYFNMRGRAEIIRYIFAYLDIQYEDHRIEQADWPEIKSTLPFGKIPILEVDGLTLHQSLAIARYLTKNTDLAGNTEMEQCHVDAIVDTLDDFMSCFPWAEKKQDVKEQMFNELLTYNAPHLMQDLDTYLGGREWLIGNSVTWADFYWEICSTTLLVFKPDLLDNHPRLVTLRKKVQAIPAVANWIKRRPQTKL

As usually defined, the inhibition is the change of the read-out against control, counted positive when it falls. One may read the IC50 as the concentration needed to halve the response being measured. As for `CC(C)C(=O)NCc1ccc(Cl)c(-c2nc3cc(-c4ccc(C(F)(F)F)cc4)ncc3c(=O)[nH]2)c1`, the inhibition in data set [1] worked out at 10.5%; in data set [2], 18.7%; in data set [4] it was 0.67%. For the same compound, the IC50 stood at 5 nM at Prostaglandin E synthase and 12 nM in data set [5]. In data set [3], the remaining at 1 h was 77%.
